We go through eight compounds from publication PMC12736495, “First Insights into the Anti-Inflammatory Potential of Colliguaja odorifera Molina Leaf Extracts and Their Isolated Phenolic Compounds” (Plants, 2025).

One assay addresses Lipoxygenase. The following applies: cited from earlier work.
The target of assay [1] is T1, lipoxygenase Type I-B LOX A from Glycine max L. (soybean) (15-LOX) (Glycine max, UniProt P08170).
T1 construct: purchased Sigma-Aldrich (Steinheim, Germany)
T1 sequence (P08170 1-839): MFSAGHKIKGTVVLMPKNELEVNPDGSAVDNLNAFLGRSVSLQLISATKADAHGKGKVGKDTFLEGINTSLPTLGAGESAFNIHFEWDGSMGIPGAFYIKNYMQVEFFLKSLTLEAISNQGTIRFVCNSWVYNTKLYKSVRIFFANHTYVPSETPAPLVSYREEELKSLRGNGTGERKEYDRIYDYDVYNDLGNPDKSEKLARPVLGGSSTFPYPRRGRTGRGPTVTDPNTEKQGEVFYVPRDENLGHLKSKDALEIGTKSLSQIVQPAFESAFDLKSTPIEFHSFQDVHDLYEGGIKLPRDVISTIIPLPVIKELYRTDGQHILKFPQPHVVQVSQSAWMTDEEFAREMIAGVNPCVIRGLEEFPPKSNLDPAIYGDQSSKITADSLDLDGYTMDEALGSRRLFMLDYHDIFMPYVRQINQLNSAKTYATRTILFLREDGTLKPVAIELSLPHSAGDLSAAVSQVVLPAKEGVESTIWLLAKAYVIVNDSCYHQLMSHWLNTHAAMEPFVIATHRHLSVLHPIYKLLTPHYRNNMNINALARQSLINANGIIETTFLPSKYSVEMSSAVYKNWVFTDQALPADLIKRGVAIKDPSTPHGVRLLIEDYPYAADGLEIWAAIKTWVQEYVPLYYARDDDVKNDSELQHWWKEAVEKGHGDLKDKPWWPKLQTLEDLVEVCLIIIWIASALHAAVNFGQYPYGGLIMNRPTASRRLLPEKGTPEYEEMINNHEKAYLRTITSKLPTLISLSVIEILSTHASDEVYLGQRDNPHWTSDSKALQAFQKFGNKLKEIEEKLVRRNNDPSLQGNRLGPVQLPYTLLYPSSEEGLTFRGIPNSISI
In words: Inhibitory LOX activity assay (linoleic acid, absorbance at 234 nm). The class given is biochemical. How it is done: The inhibitory LOX assay was conducted according to the procedure established by Lyckander and Malterud. The lipoxygenase Type I-B LOX A from Glycine max L. (soybean) (CAS: 9029-60-1) (15-LOX) with an optimal pH of 8.0–9.0 and linoleic acid used here, was obtained from Sigma-Aldrich (Steinheim, Germany).
A linoleic acid ethanol solution (268 µM) was prepared, and 50 µL of this solution was used to prepare concentrations ranging from 0.6 to 26 µg/mL for the HA-E sample, and from 0.6 to 12.9 µg/mL for the EA-E and B-E samples. Then the volume for each concentration was adjusted to 1 mL with 200 mM borate buffer (pH 8.75) containing 0.005% Tween 80. The reaction was initiated by adding 1.5 µL of Soybean 1-LOX (948 U), equivalent to 0.054 g/mL. Enzymatic activity was monitored by measuring the increase in absorbance at 234 nm for 4 min at 37 °C. Each enzyme measurement for each dilution was repeated three times. All tests were performed in triplicate. For this purpose, three samples were taken from each extract. For each of them, enzymatic activity was determined as described above. […] The percentage inhibition of enzyme activity was calculated by comparing the absorbance of the samples to that of the blank, using Equation (1), where A0 is the absorbance of the blank, and A1 is the absorbance of the sample.% inhibition = [(A0 − A1)/A0] × 100(1)
The percentage of inhibition was plotted against sample concentration to calculate the IC50 value.

The target in the next assay is T2, sPLA2 (Type V) (Homo sapiens, UniProt P39877).
T2 construct: purchased Cayman Chemical Co. (Ann Arbor, MI, USA)
T2 sequence (P39877 21-138): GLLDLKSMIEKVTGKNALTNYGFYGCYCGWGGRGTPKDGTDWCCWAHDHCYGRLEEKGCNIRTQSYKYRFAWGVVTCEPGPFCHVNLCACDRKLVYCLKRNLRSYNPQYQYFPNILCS
Briefly: Screening assay for phospholipase A2 inhibitors (Type V), Cayman kit. The class given is biochemical. How it is done:
The phospholipase A2 inhibitory activity was determined using the phospholipase A2 (sPLA2) inhibitor detection assay kit (Type V). This kit was purchased from Cayman Chemical Co. (Ann Arbor, MI, USA). Briefly, 10 μL of C. odorifera extracts (HA-E, EA-E, B-E, and W-E, separately) were pre-incubated with 25 mM Tris-HCl buffer at pH 7.5, including 10 μL of phospholipase A2. The reaction was initiated by adding 200 μL of a 1.66 mM diheptanoyl thio-PC substrate solution. The plate was then shaken for 30 s and incubated at 25 °C for 15 min. Then, 10 µL of 5,5′-dithiobis(2-nitrobenzoic acid) (DTNB) was added to stop the enzymatic reaction and allow color development. The reaction mixture was stirred on a shaker for one minute, and the absorbance was subsequently measured at 405 nm with a spectrophotometer (METASH, UV-1500B; Shanghai Metash Instrument Co., Shanghai, China). According to the kit instructions, the sPLA2 activity was evaluated with extract concentrations ranging from 27 to 108 μg/mL. Arachidonic thioester phosphatidylcholine was used as the positive control. […] All tests were performed in triplicate.

The next assay deals with T3, hyaluronidase (Bos taurus, UniProt Q2YDK3).
T3 sequence (Q2YDK3 36-553): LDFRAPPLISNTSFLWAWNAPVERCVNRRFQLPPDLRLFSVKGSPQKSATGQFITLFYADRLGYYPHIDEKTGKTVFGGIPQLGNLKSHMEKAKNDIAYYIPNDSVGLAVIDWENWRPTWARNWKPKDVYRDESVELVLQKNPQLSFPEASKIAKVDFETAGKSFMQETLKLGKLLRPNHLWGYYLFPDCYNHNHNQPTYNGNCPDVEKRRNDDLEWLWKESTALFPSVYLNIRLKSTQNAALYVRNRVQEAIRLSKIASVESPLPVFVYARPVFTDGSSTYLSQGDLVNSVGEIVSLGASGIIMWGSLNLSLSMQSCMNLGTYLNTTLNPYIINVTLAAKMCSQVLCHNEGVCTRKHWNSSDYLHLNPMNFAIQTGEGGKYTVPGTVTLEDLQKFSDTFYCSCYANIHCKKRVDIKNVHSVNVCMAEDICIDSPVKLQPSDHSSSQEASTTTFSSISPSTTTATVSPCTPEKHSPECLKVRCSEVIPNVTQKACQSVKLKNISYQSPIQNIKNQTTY
In words: Hyaluronidase inhibition assay (turbidimetric kit). The note with it: sodium hyaluronate substrate, 37 °C, mean ± s.d. It is filed as biochemical. On the procedure: The hyaluronidase inhibitory activity of the extracts was assessed using the Hyaluronidase Inhibitor Detection Assay Kit purchased from Sigma-Aldrich (St. Louis, MO, USA), which employs a two-step turbidimetric reaction to measure the amount of hyaluronic acid hydrolyzed by the enzyme, where the decrease in turbidity is proportional to the enzymatic activity of the sample. The assay was conducted according to the manufacturer’s instructions, with slight modifications, using 96-well plates. Briefly, a reaction mixture containing 10 μL of C. odorifera extract (HA-E, EA-E, B-E, and W-E, separately) and 20 μL of the enzyme (at a concentration of 100 U/mL in incubation buffer) was mixed in each well. After a 15 min incubation at 37 °C, a 20 μL substrate solution (0.1% sodium hyaluronate) was added to each well. The plates were incubated at 37 °C for an additional 20 min. Then, non-hydrolyzed […] was precipitated by adding 250 μL of 2.5% cetyltrimethylammonium bromide (CTAB). […] The intensity of complex formation was measured by absorbance at 630 nm in a spectrophotometer (METASH, UV-1500B). […] The percentage of hyaluronidase inhibition was calculated using Equation (2), where AS is the absorbance of the solution with the sample extract, AC is the absorbance of the solution without inhibitor, and AT is the absorbance of the enzyme.Inhibition = (AS − AC)/(AT − AC) × 100(2)

Where [2] appears, read: LOX Inhibition (IC50 µg/mL), soybean 15-LOX, linoleic acid substrate, borate buffer pH 8.75, 37 °C, mean ± s.d.
The mark [3] stands for this setting: anti-LOX activity, concentration for 50% inhibition in µM, same LOX IC50 expressed in µM.

Entries after “also recorded” stand apart in the source; their conditions may differ. Read-outs that look alike come from different tables or passages of the source.

Take `O=c1cc(-c2ccccc2)oc2cc(O)c(O)c(O)c12` [Baicalein]: the “Lipoxygenase inhibition IC50” value on Lipoxygenase (Euphorbiaceae extract and its control) is 22.4 µg/mL; at Lipoxygenase (extract and its control), 0.15 µg/mL.

Regarding `CCOC(=O)c1cc(O)c(O)c(O)c1` [Ethyl gallate], the IC50 in assay [1] (soybean 15-LOX, linoleic acid substrate, borate buffer pH 8.75, 37 °C, mean ± s.d., read-out: LOX Inhibition (IC50 µg/mL) (converted)) was 329 µM.

On to `O=C(O)c1cc(O)c(O)c(O)c1` [Gallic acid], for which the values for the IC50 (in assay [1] (setting [2]); in assay [1] (setting [3]); at sPLA2 (Type V)) were 2.17 µM, 2.2 µM and 65.6 µM, respectively. For `CC(C)Cc1ccc(C(C)C(=O)O)cc1` (centres unmarked) [Ibuprofen], the “Lipoxygenase inhibition IC50” value on Lipoxygenase (extract and its control) is 69.7 µg/mL. On to `COc1ccc2c(c1)c(CC(=O)O)c(C)n2C(=O)c1ccc(Cl)cc1` [Indomethacin], for which the “Lipoxygenase inhibition IC50” value on Lipoxygenase (extract and its control) is 7.9 µg/mL. Consider `COC(=O)c1cc(O)c(O)c(O)c1` [Methyl gallate], for which, in assay [1] (setting [2]), the IC50 is 330 µM. As to `O=c1c(O)c(-c2ccc(O)c(O)c2)oc2cc(O)cc(O)c12` [Quercetin, reference compound], the IC50 at sPLA2 (Type V) (sPLA2-V, diheptanoyl thio-PC substrate, 25 °C, mean ± s.d., read-out: sPLA2 Inhibition (IC50 µg/mL) (converted)) was 77.7 µM.

With `O=C(O)C1=C[C@@H](O)[C@@H](O)[C@H](O)C1` [Shikimic acid], the values for the IC50 in assay [1] (setting [2]) and in assay [1] (setting [3]) were 5.57 µM and 5.6 µM, respectively. The “sPLA2 Inhibition (IC50 µg/mL)” value at sPLA2 (Type V) (sPLA2-V, diheptanoyl thio-PC substrate, 25 °C, mean ± s.d.) is “did not elicit anti-sPLA2-V; also recorded: not active”. Further, at hyaluronidase, the “HA Inhibition (IC50 µg/mL)” value is “did not elicit anti-sPLA2-V and anti-hyaluronidase activities”.
